Assays:
HKB-11 lymphoma cells [1] = experiment: Flow cytometry apoptosis profile, Annexin V-CF Blue / 7-AAD; format: cell-based, human; details: 24 h
Experimental: The HKB-11 cells were cultured in T75 cell culture flasks with an initial density of 1 × 10^6 cells per 10 mL at 37 °C in the presence of 5% CO2 for 24 h. The following day, the cell culture media was removed from each flask and replaced with fresh FBS-containing media. […] An FBS-containing medium was used as the untreated control. The flasks were then incubated at 37 °C with 5% CO2 for 24 h. Then, the cell culture media from each flask were collected. Subsequently, trypsin (0.25% w/v) was applied to the flasks for 4 min at 37 °C. The trypsin reaction was neutralised with an equal volume of 10% FBS serum-containing media, and the cells were combined with the previously collected media. The cell pellets were obtained by centrifuging at 500× g for 5 min at room temperature (RT). This procedure was repeated by suspending the cell pellets in 1 mL of PBS each time. The collected cell pellets from each treatment were immediately suspended in 500 μL of 1× binding buffer and gently mixed by pipetting. Annexin V-CF Blue (5 μL) and 7-AAD (5 μL) staining solutions were added to 100 μL of the cell suspension. The stained cells were incubated for 15 min in the dark at RT, after which 400 μL of a 1× assay buffer was added to each cell suspension. Subsequently, the cells were examined using a flow cytometer (Novocyte 3000, ACEA Biosciences Inc., San Diego, CA, USA), and data analysis and processing were performed using NovoExpress software (version 1.5.0, ACEA Biosciences Inc., CA, USA). In the initial step, the cells were gated on forward and side scatter modes to exclude cell aggregates and debris near the origin. The cells were then gated on dot plots, where Annexin V-CF in Pacific Blue was plotted against 7-AAD fluorescence in PerCP. Quadrants were positioned relative to the untreated control, indicating live cells ([…] and −7-AAD) appearing in the lower-left quadrant, early apoptotic cells (+Annexin V and −7-AAD) in the lower-right quadrant, late apoptotic cells (+Annexin V and +7-AAD) in the upper-right quadrant, and necrotic cells (−Annexin V and +7-AAD) in the upper-left quadrant. For statistical analyses and visualisation, the percentage data of cells in each quadrant after different treatments (n = 3) were exported to GraphPad Prism software (version 9.0, San Diego, CA, USA).

[2] = cited from earlier work
Source text: Both N and UB face challenges regarding bioavailability. […] Thus, formulation strategies or delivery systems to enhance systemic exposure warrant exploration in future studies.

HKB-11 lymphoma cells [3] = experiment: ROS production, H2DCFDA assay; format: cell-based, human; details: 4 h
Experimental: Briefly, HKB-11 lymphoma cells (2.5 × 10^5 cells/mL) were cultured in a 96-well plate, allowed to adhere overnight, and treated with 20 μM H2DCFDA for 45 min to assess ROS levels. The dye solution was removed, and cells were washed with 1× buffer. Next, the cells were treated with N (8000 μM), N (4000 μM), UB (500 μM), UB (250 μM), N/UB (3500 μM), N/UB (1750 μM), N/UB (5750 μM), N/UB (2875 μM), Dox (4 μM), and tert-butyl hydroperoxide (TBHP) (150 μM) and then incubated at 37 °C for 4 h. Finally, the plate was immediately read at Ex/Em = 485/535 nm using a microplate spectrophotometer (BMG CLARIOstar, VIC, Australia). The fold change in ROS production was determined relative to the untreated control (cells treated with the supplement buffer according to the manufacturer’s protocol).

[4] = test system: HKB-11 human lymphoma cells; experiment: Alamar Blue antiproliferative assay, HKB-11; format: cell-based; details: HKB-11, 72 h, single postbiotics, GraphPad Prism nonlinear regression, read-out: IC50 (concentration required to inhibit 50% of cell growth)
Experimental: The cell viability of the HKB-11, Hs 313.T, and HS-5 cells after treatment with different concentrations of the seven different postbiotics, including SCFA salts (magnesium acetate, sodium propionate, and sodium butyrate), UA and UB, purine nucleoside (inosine), and bacteriocin (N), was determined using the Alamar Blue assay as per the method described earlier. Briefly, 100 μL of cells was cultured in 96-well plates at a 3 × 10^5 cells/mL seeding density. After 24 h, the cells were treated with 16,000 µM of each postbiotic except for the urolithins, which were applied at 500 µM using a 1:2 serial dilution across a 10-point dose–response curve, followed by a 72 h incubation. A positive control using doxorubicin was prepared at a concentration of 4 μM, and an untreated control with 0.1% DMSO was added to every plate. At the end of the incubation period, the culture media were removed, and 100 μL of a 0.1 mg/mL Alamar Blue solution (resazurin, prepared as a stock solution at 1 mg/mL in freshly made PBS, followed by a 1:10 dilution with serum-free media) was added to each well. The fluorescence levels were assessed using a microplate spectrophotometer (BMG CLARIOstar, Mornington, VIC, Australia) with an excitation wavelength of 555 nm and emission measurement at 595 nm. The compounds were tested in triplicate, with the untreated control taken as 100% cell viability.
Data were collected and managed using MS Office Excel and GraphPad Prism for statistical analyses and visualisation. Data collection and analyses were carried out in triplicate, and the outcomes were presented as the mean ± standard deviation. Statistical significance between the mean values was determined at p ≤ 0.05 employing a two-way ANOVA. Tukey and Dunnett’s tests were utilised within GraphPad Prism software to perform nonlinear regression and multiple comparisons. Furthermore, GraphPad Prism software computed the IC50 value (representing the drug concentration required to achieve a 50% cell growth inhibition). The experimental groups in the proteomics study were compared statistically using unpaired t-tests, assuming equal variances. Candidate proteins were selected based on an absolute log2 fold change ≥ 0.58 and a Q-value ≤ 0.05. Enrichment analysis was subsequently conducted using Ingenuity Pathway Analysis (IPA), applying a significance threshold of adjusted Q ≤ 0.05 to identify functionally enriched pathways, focusing on those with an absolute z-score of ≥1.

IC50 [4]	Compound	Apoptosis induction compared to the untreated control (HKB-11 lymphoma cells [1]; HKB-11, 500 µM, p ≤ 0.0001)	Metabolism [2]	Oral bioavailability [2]	ROS levels compared to the untreated control (HKB-11 lymphoma cells [3]; HKB-11, 500 μM and 250 μM, p ≥ 0.05, n = 3)	Apoptosis induction (HKB-11 lymphoma cells [1]; HKB-11, 3200 µM, p ≤ 0.0001, compared with 8000 μM)	Cell death relative to untreated controls (HKB-11 lymphoma cells [1]; HKB-11, 8000 μM, p ≤ 0.01, apoptotic and necrotic populations elevated)	Proteolytic stability [2]	Stability in the gastrointestinal tract [2]	Systemic absorption [2]	ROS levels compared to the untreated control (HKB-11 lymphoma cells [3]; HKB-11, 8000 μM, p ≤ 0.01, n = 3)
87.6 µM	O=c1oc2cc(O)ccc2c2ccccc12 [UB, Urolithin B]	greater apoptotic induction	extensively metabolised	moderate oral bioavailability	minimal changes	–	–	–	–	–	–
1470 µM	Nisin (ITSISLCTPGCKTGALMGCNMKTATCHCSIHVSK; Lantibiotic nisin-A; UniProt P13068 24-57, looked up) [34-amino-acid lantibiotic peptide (bacteriocin) produced by Lactococcus lactis; purchased]	–	–	–	–	induced apoptosis with greater potency	significantly increased cell death	susceptibility to proteolytic degradation	degraded in the gastrointestinal tract	low systemic absorption	statistically significant increase
